≈ marks a conversion by molar mass, not a printed value. Like-named read-outs stand apart in the source and are kept apart here. Some results are limits rather than exact numbers.

The test system of assay [1] is Leishmania aethiopica promastigotes. Nature of the assay: In vitro antipromastigote (antileishmanial) assay, AlamarBlue. The format is cell-based. The settings on record: Leishmania aethiopica promastigotes. The procedure: The viability of promastigotes can be estimated by microscopically counting live cells, measuring enzyme activities via the 3-(4,5-dimethyl-thiazol-2-yl)-2,5-diphenyl-tetrazolium bromide (MTT) assay, etc. The frequent use of these methods is hampered due to the lengthy and time-consuming procedures followed in the test. […] The extent of fluorescence produced by each sample is strongly correlated with the number of living cells.
A complete culture medium was prepared from RPMI-1640, 10% HIFCS, 1% penicillin–streptomycin, and 1% L-glutamine for the in vitro antipromastigote assay. The Leishmania aethiopica isolate was grown first on Novy-MacNeal-Nicolle (NNN) medium and then in tissue-culture flasks containing RPMI-1640 medium supplemented with 10% HIFCS and 1% 100 IU penicillin/mL-100 µg/mL streptomycin solution at 22 ℃ [35].
The entire test compound was dissolved in DMSO to a final concentration of 1 mg/mL. The final DMSO concentration was adjusted not to exceed v/v 1% to avoid its inhibitory effect against parasite proliferation or change in morphology. Six different concentrations of test compounds, ranging from 10 µg/mL to 0.04 µg/mL, were prepared by […] serial dilutions. Amphotericin B deoxycholate (with a concentration ranging from 0.5 µg/mL to 0.002 µg/mL) and miltefosine (with a concentration ranging from 40 µg/mL to 0.16 µg/mL) were used as a positive control and DMSO (v/v 1%) in complete media was used as a negative control to compare the antileishmanial activities of test compounds [36]. All the prepared drugs were stored at − 20 ℃ until used in the experiment.
The antileishmanial activity of the test compounds was evaluated in vitro against isolates of Leishmania aethiopica promastigotes. 100 µL of the parasite suspension containing 3 × 10^6 promastigotes per milliliter was added to 96-well plates. The six different concentrations of test compounds and reference drugs were then added in triplicate. DMSO in complete RPMI media was used as a negative control to compare the antileishmanial activities of the test compounds. After 24 h incubation, 20 µL of fluorochrome AlamarBlue® (12.5 mg resazurin dissolved in 100 mL of distilled water) was added to each well. Then, the absorbance of each well was measured after 4 h of incubation at wavelengths of 492 and 630 nm using an ELISA reader for the quantitative determination of viable cells. Finally, the IC50 values were computed from sigmoidal dose–response curves using GraphPad Prism 5.0 software (GraphPad Software, Inc., San Diego, CA, USA).
Background: The colour change of resazurin is a common sign of viable cells or microbes.

In assay [2] the test system is Plasmodium berghei ANKA strain. Nature of the assay: In vivo antimalarial four-day suppressive test. Further details: species or system Swiss albino mice. The settings on record: P. berghei infected mice; for Mean survival time: 48.46 µmol/kg per day (CQ 25 mg/kg), ND = no mouse death recorded during the study period; for Mean survival time / % Parasitemia: mean ± SD; for % Parasitemia / inhibition in vivo at 48.46 µmol/kg: day 4, 48.46 µmol/kg per day (CQ 25 mg/kg); for inhibition in vivo at 48.46 µmol/kg: Plasmodium berghei, in Mus musculus, 96 h, read-out: % Suppression. From the text:
The four-day suppressive test was implemented to screen the antimalarial activity of the target compounds as it is effective in evaluating early infections and convenient to assess the prodrug effects of test compounds [30]. In this study, the in vivo antimalarial activity of the target compounds was investigated by using mice infected with Plasmodium berghei (achieve steady-state infection) at a dose of 48.4 µmol/kg per day. The results of the antimalarial activity screening of target compounds against the control groups were expressed based on mean parasitemia and percent inhibition of parasitemia (Table 2) which is known as a reliable parameter for in vivo antimalarial screening tests. […] While compounds 9, 10 and 11 containing amidic carbonyl group had less than 50% mean percent suppression compared to the positive control groups. Among the tested compounds, bis-[N,N-dimethylaminomethylene-4-(3-(4-methylphenyl)-4-(hydrazonomethylene)-1H-pyrazole-1-yl)benzenesulfonamide] […] On the other hand, there was an increase in the mean survival time (9.8 ± 1.3) of mice treated with a half dose ([…]) of compound 15, highlighting the potential dose-dependent toxicity associated with bis-structure due to cleavage of acid labile C = N bond and subsequent increase in concentration in the systemic circulation. […] This could be attributed to the presence of a primary amine group adjacent to the C = N bond that can increase the strength of binding interaction with the active site of the receptor by hydrogen bonding. Moreover, the hydrophobic interaction imparted by the methylated phenyl group with the amino acid residues in the enzyme pocket may be beneficial for the observed antimalarial activity of compound 14. The compounds containing C = O bond (9–12) near C = N had relatively lower antimalarial activity due to the electron-withdrawing effect and subsequent decrease in hydrogen bonding interactions with the different functional groups reside in the enzyme pocket.
The in vivo antimalarial activity of the synthesized compounds was determined using the four-day standard suppressive test using Swiss albino mice donated by the Ethiopian Health and Nutrition Institute, Addis Ababa, Ethiopia. Briefly, Swiss albino mice were infected with Plasmodium berghei ANKA strain (0.2 mL of 2 × 10^7 parasitized erythrocytes) through intraperitoneal injection. After 2 h of infection, the mice were weighed and randomly divided into nine groups of five mice per cage. Groups 1–7 received each test compound ([…]) dissolved in a vehicle containing 7% Tween 80, 3% ethanol, and water. Group 8 was treated with chloroquine phosphate (25 mg/kg) suspended in 7% Tween 80, 3% ethanol, and water which served as a positive control. Group 9 received 2 mL/100 g of the negative control (vehicle 7% Tween 80, 3% ethanol, and water). On day four (96 h post-infection), a blood smear was taken from the tail of each mouse, fixed with absolute ethanol, and stained with Giemsa stain. Then, the level of parasitemia was determined microscopically by counting four fields of approximately 100 erythrocytes per field. Finally, the antimalarial effects of control groups and test compounds were expressed in terms of blood parasitemia, percent suppression and mean survival time of mice.
The % suppression and % parasitemia in the antimalarial activity testing were computed using the formulas given below and the resulting data along with the mean survival time was analyzed using Microsoft office excel 2007. The variation in the values of suppressive test was assessed by using one-way analysis of variance (ANOVA) and p < 0.05 is considered as stastically significant.
Parasitemia(%)=Numberofinfectedredbloodcells/Numberoftotalredbloodcells×100
Suppression(%)=Parasitemiaintheuntreatedgroup-Parasitemiainthetreatedgroup/Parasitemiainuntreatedgroup×100

On the set-up of assay [3]: method as in PMID 25768697. The conditions noted are these: cited from earlier work.
[4] abbreviates: triplicate, 24 h incubation + 4 h AlamarBlue, read-out: IC50 Values (µg/mL), antipromastigote activity.
Where [5] appears, read: molar form of the µg/mL values, read-out: IC50 Values (µM/mL), antipromastigote activity.

Turning to `Cc1ccc(-n2cc(C=NNC(=O)c3ccccc3O)c(-c3ccccc3)n2)cc1` [Compound 11, Nʹ-[(3-phenyl-1-(4-methylphenyl)-1H-pyrazol-4-yl)methylene] salicylhydrazide], the IC50 in assay [1] (setting [4]) was found to be 5.74 µg/mL. The IC50 in assay [1] (setting [5]) stood at 10.4 µM. In assay [2], the “Mean survival time” value came out at 8.7 ± 0.7 days, the “% Parasitemia” value was 30.0 ± 6.7% and the inhibition in vivo at 48.46 µmol/kg is under 50%.

As for `CN(C)C=NS(=O)(=O)c1ccc(-n2cc(/C=N/NC(=O)c3ccccc3O)c(-c3ccc(Cl)cc3)n2)cc1` [Compound 10, Nʹ-[(3-(4-chlorophenyl)-1-((4-N,N-dimethylaminomethylenesulfonamido)phenyl)-1H-pyrazol-4-yl)methylene] salicylhydrazide], the IC50 in assay [1] (setting [4]) is 0.207 µg/mL. Moreover, in assay [1] (setting [5]), the IC50 is 0.45 µM. For the same compound, in assay [2], the “Mean survival time” value was determined as 6.8 ± 0.7 days, the “% Parasitemia” value was 33.0 ± 6.7% and the inhibition in vivo at 48.46 µmol/kg was under 50%.

`Cc1ccc(-c2nn(-c3ccc(S(N)(=O)=O)cc3)cc2/C=N/N)cc1` [Compound 14, 4-[3-(4-methylphenyl)-4-hydrazonomethylene-1H-pyrazol-1-yl] benzenesulfonamide]: in assay [1] (setting [4]), the IC50 stood at 3.26 µg/mL. Further, the IC50 in assay [1] (setting [5]) was determined as 6.71 µM. Besides, in assay [2], the “Mean survival time” value turned out to be 9.0 ± 2.0 days and the “% Parasitemia” value was determined as 15.5 ± 4.1%.

In the case of `O=C(NN=Cc1cn(-c2ccc(Br)cc2)nc1-c1ccccc1)c1ccccc1O` [Compound 9, Nʹ-[(1-(4-bromophenyl)-3-phenyl-1H-pyrazol-4-yl)methylene] salicylhydrazide], in assay [1] (setting [4]), the IC50 turned out to be 0.084 µg/mL. The IC50 in assay [1] (setting [5]) stood at 0.256 µM. Further, in assay [2], the “Mean survival time” value came to 8.6 ± 1.8 days, the “% Parasitemia” value is listed as 34.7 ± 4.1% and the inhibition in vivo at 48.46 µmol/kg was under 50%.

As to `C[C@@H]1[C@H](O)[C@@H](C)/C=C/C=C/C=C/C=C/C=C/C=C/C=C/[C@H](O[C@@H]2O[C@H](C)[C@@H](O)[C@H](N)[C@@H]2O)C[C@@H]2O[C@](O)(C[C@@H](O)C[C@@H](O)[C@H](O)CC[C@@H](O)C[C@@H](O)CC(=O)O[C@H]1C)C[C@H](O)[C@H]2C(=O)O` [Amphotericin B, Amphotericin B deoxycholate, reference compound], the IC50 in assay [1] (setting [4]) amounted to 0.047 µg/mL; in assay [1] (setting [5]) it was 0.035 µM. In addition, the “IC50, antileishmanial activities” value in assay [3] is given as 0.0472 µg/mL (≈ 0.0511 µM).

For `Cc1ccc(-c2nn(-c3ccc(S(=O)(=O)N=CN(C)C)cc3)cc2/C=N/NC(=O)c2ccccc2O)cc1` [Compound 12], the IC50 in assay [1] (setting [4]) turned out to be 0.111 µg/mL. Also, the IC50 in assay [1] (setting [5]) stood at 0.28 µM. In addition, in assay [2], the “Mean survival time” value came out at 7.8 ± 1.2 days and the “% Parasitemia” value turned out to be 67.9 ± 3.7%.

For the compound `Cc1ccc(-c2nn(-c3ccc(S(=O)(=O)N=CN(C)C)cc3)cc2C=NN=Cc2cn(-c3ccc(S(=O)(=O)N=CN(C)C)cc3)nc2-c2ccc(C)cc2)cc1` [Compound 15, Bis-[N,N-dimethylaminomethylene-4-(3-(4-methylphenyl)-4-(hydrazonomethylene)-1H-pyrazole-1-yl)benzenesulfonamide]], the IC50 in assay [1] (setting [4]) is 0.181 µg/mL. The IC50 in assay [1] (setting [5]) worked out at 0.441 µM. For the same compound, in assay [2], the “Mean survival time” value came to 7.7 ± 1.4 days and the “% Parasitemia” value turned out to be 5.0 ± 1.4%. Also, the “mean survival time at half dose” value in assay [2] (half dose (24.2 µmol/mL)) amounted to 9.8 ± 1.3.

(Values after paper PMC10775556, “Synthesis, antileishmanial, antimalarial evaluation and molecular docking study of some hydrazine-coupled pyrazole derivatives” (BMC Chemistry, 2024).)
